According to ChEMBL document CHEMBL3046354, “Design, synthesis, and insecticidal activities of novel analogues of neonicotinoids: replacement of nitromethylene with nitroconjugated system” (2009):

Tests used:
Format in all cases: functional
Mythimna separata [1] = assay: Insecticidal activity against Mythimna separata (Oriental armyworm) second-instar larvae infested on compound pre-treated corn leaves assessed as insect mortality at 500 mg/L measured 48 hr post compound treatment by leaf-dip method
Aphis craccivora [2] = assay: Insecticidal activity against Aphis craccivora (cowpea aphid) infested horsebean plant leaves assessed as insect mortality at 500 mg/L measured 24 hr post compound treatment by leaf-dip method
Mythimna separata [3] = assay: Insecticidal activity against Mythimna separata(Oriental armyworm) second-instar larvae infested on compound pre-treated corn leaves assessed as insect mortality measured 48 hr post compound treatment by leaf-dip method
Aphis craccivora [4] = assay: Insecticidal activity against Aphis craccivora (cowpea aphid) infested horsebean plant leaves assessed as insect mortality measured 24 hr post compound treatment by leaf-dip method
Nephotettix cincticeps [5] = assay: Insecticidal activity against Nephotettix cincticeps (green rice leafhopper) grown on booting stage rice plant stems assessed as insect mortality measured 48 hr post compound treatment by leaf-dip method
Nephotettix cincticeps [6] = assay: Potency index, ratio of LC50 for imidacloprid to LC50 for test compound against Nephotettix cincticeps (green rice leafhopper) grown on booting stage rice plant stems assessed as insect mortality measured 48 hr post compound treatment by leaf-dip method
Laodelphax striatellus [7] = assay: Insecticidal activity against Laodelphax striatella (small brown planthopper) grown on booting stage rice plant stems assessed as insect mortality measured 48 hr post compound treatment by leaf-dip method
Laodelphax striatellus [8] = assay: Potency index, ratio of LC50 for imidacloprid to LC50 for test compound against Laodelphax striatella (small brown planthopper) grown on booting stage rice plant stems assessed as insect mortality measured 48 hr post compound treatment by leaf-dip method

Compound | mortality at 500 µg/mL (Mythimna separata [1]) | mortality at 500 µg/mL (Aphis craccivora [2]) | LC50 (Mythimna separata [3]) | LC50 (Aphis craccivora [4]) | LC50 (Nephotettix cincticeps [5]) | RatioLC50 (Nephotettix cincticeps [6]) | LC50 (Laodelphax striatellus [7]) | RatioLC50 (Laodelphax striatellus [8])
O=[N+]([O-])/C(=C\c1ccc(Cl)o1)C1=NCCN1Cc1ccc(Cl)nc1 | 100% | 100% | 37.6 µM | 7.54 µM |  |  |  | 
Cc1cc(/C=C(/C2=NCCN2Cc2ccc(Cl)nc2)[N+](=O)[O-])oc1C | 0% | 100% |  | 4.65 µM |  |  |  | 
Cc1ccc(/C=C(/C2=NCCN2Cc2ccc(Cl)nc2)[N+](=O)[O-])o1 | 100% | 100% | 53.1 µM | 6.34 µM | 4.05 µM |  |  | 
O=[N+]([O-])/C(=C\c1cccs1)C1=NCCCN1Cc1ccc(Cl)nc1 | 73.3% | 100% |  | 20.5 µM |  |  |  | 
O=[N+]([O-])/C(=C\c1ccco1)C1=NCCN1Cc1cnc(Cl)s1 | 100% | 100% | 107 µM | 3.5 µM |  |  |  | 
O=[N+]([O-])/C(=C\c1ccco1)C1=NCCCN1Cc1ccc(Cl)nc1 | 16.7% | 100% |  | 76.4 µM |  |  |  | 
Cc1ccc(/C=C(/C2=NCCCN2Cc2ccc(Cl)nc2)[N+](=O)[O-])s1 | 63.3% | 100% |  | 24.6 µM |  |  |  | 
Cl.O=[N+]([O-])/C(=C\c1ccc(CO)o1)C1=NCCN1Cc1ccc(Cl)nc1 | 100% | 100% | 33.9 µM | 10.6 µM | 1.11 µM | 18.8 |  | 
Cc1ccc(/C=C(/C2=NCCN2Cc2ccc(Cl)nc2)[N+](=O)[O-])s1 | 100% | 100% | 29.7 µM | 3.11 µM |  |  |  | 
O=[N+]([O-])/C(=C\c1ccc[nH]1)C1=NCCN1Cc1ccc(Cl)nc1 | 100% | 100% | 39.7 µM | 11.2 µM |  |  |  | 
O=[N+]([O-])/C(=C\c1ccsc1)C1=NCCN1Cc1ccc(Cl)nc1 | 0% | 31.9% |  |  |  |  |  | 
O=[N+]([O-])/C(=C\c1ccco1)C1=NCCN1Cc1ccccc1 | 46.6% | 0% |  |  |  |  |  | 
O=[N+]([O-])/C(=C\c1cc(Br)cs1)C1=NCCN1Cc1ccc(Cl)nc1 | 0% | 0% |  |  |  |  |  | 
O=[N+]([O-])/C(=C\c1ccco1)C1=NCCN1Cc1ccc(Cl)cc1 | 67.2% | 98% |  | 234 µM |  |  |  | 
O=[N+]([O-])/C(=C\c1ccoc1)C1=NCCN1Cc1ccc(Cl)nc1 | 100% | 100% | 55.3 µM | 4.46 µM |  |  |  | 
O=[N+]([O-])/C(=C\c1ccc([N+](=O)[O-])o1)C1=NCCN1Cc1ccc(Cl)nc1 | 100% | 100% | 69.5 µM | 11.1 µM | 154 µM |  |  | 
Cc1ccc(/C=C(/C2=NCCCN2Cc2ccc(Cl)nc2)[N+](=O)[O-])o1 | 33.3% | 100% |  | 698 µM |  |  |  | 
O=[N+]([O-])/C(=C\c1ccc(Br)o1)C1=NCCN1Cc1ccc(Cl)nc1 | 100% | 100% | 39.7 µM | 7.3 µM | 2.54 µM |  |  | 
Cl.O=[N+]([O-])/C(=C\c1ccco1)C1=NCCN1Cc1ccc(Cl)nc1 | 100% | 100% | 24.7 µM | 3.72 µM | 1.3 µM | 16 | 7.23 µM | 6.9
O=[N+]([O-])/C(=C\c1ccc(Cl)o1)C1=NCCCN1Cc1ccc(Cl)nc1 | 96.7% | 100% |  | 60.9 µM |  |  |  | 
Cl.O=[N+]([O-])/C(=C\c1cccs1)C1=NCCN1Cc1ccc(Cl)nc1 | 100% | 100% | 52.9 µM | 4.23 µM | 1.22 µM | 17.1 | 14 µM | 3.6
CCc1ccc(/C=C(/C2=NCCN2Cc2ccc(Cl)nc2)[N+](=O)[O-])o1 | 100% | 100% | 97.9 µM | 1.82 µM |  |  |  | 
O=[N+]([O-])/N=C1\NCCN1Cc1ccc(Cl)nc1 [IMIDACLOPRID] |  | 100% |  | 35 µM | 20.9 µM |  | 49.8 µM | 
